Assay results taken from PubChem BioAssay (NCI).
Values joined by “and” are separate entries in the source; they are usually repeats but may differ in a detail not shown here. Equal entries are not always repeated.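 Growth conditions: 96-well plates. Treatment: test compound, 48 hours, 5 concentrations. Analysis: linear interpolation between bracketing concentrations; unreached endpoints set to highest concentration. GI50 = concentration required for 50% inhibition of growth. TGI denotes the concentration required for complete inhibition of growth.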

Columns and labels:
Assay in all cases: NCI-60 cell line screen, 48 h
HCC-2998 colon = system: HCC-2998 colon
CCRF-CEM leukemia = system: CCRF-CEM leukemia
SK-MEL-28 melanoma = system: SK-MEL-28 melanoma
U251 CNS = system: U251 CNS
OVCAR-3 ovarian = system: OVCAR-3 ovarian
OVCAR-4 ovarian = system: OVCAR-4 ovarian
SN12C renal = system: SN12C renal
UACC-257 melanoma = system: UACC-257 melanoma
HT29 colon = system: HT29 colon
MDA-MB-231 breast = system: MDA-MB-231 breast

CCCCc1cc(O)ccc1O
GI50 (HCC-2998 colon): 70.8 µM
TGI (HCC-2998 colon): > 100 µM
GI50 (CCRF-CEM leukemia): 2.79 µM
TGI (CCRF-CEM leukemia): 60.6 µM
GI50 (SK-MEL-28 melanoma): 78.7 µM
TGI (SK-MEL-28 melanoma): > 100 µM
GI50 (U251 CNS): 37.4 µM
TGI (U251 CNS): > 100 µM
GI50 (OVCAR-3 ovarian): 7.84 µM
TGI (OVCAR-3 ovarian): 21.8 µM
GI50 (OVCAR-4 ovarian): 13.1 µM
TGI (OVCAR-4 ovarian): 26.3 µM
GI50 (SN12C renal): 18.7 µM
TGI (SN12C renal): > 100 µM
GI50 (UACC-257 melanoma): 78.2 µM
TGI (UACC-257 melanoma): > 100 µM
GI50 (HT29 colon): 43.1 µM
TGI (HT29 colon): > 100 µM
GI50 (MDA-MB-231 breast): 15.1 µM
TGI (MDA-MB-231 breast): > 100 µM

NC(N)=N/N=C/c1c(-c2cc(Cl)sc2Cl)nc2n1CCS2
GI50 (HCC-2998 colon): 5.11 µM
TGI (HCC-2998 colon): 12.6 µM
GI50 (CCRF-CEM leukemia): 8.67 µM
TGI (CCRF-CEM leukemia): 19.6 µM
GI50 (U251 CNS): 7.61 µM
TGI (U251 CNS): 14.4 µM
GI50 (OVCAR-3 ovarian): 8.81 µM
TGI (OVCAR-3 ovarian): 17.3 µM
GI50 (SN12C renal): 7.18 µM
TGI (SN12C renal): 14.2 µM
GI50 (UACC-257 melanoma): 9 µM
TGI (UACC-257 melanoma): 20.4 µM
GI50 (MDA-MB-231 breast): 7.64 µM
TGI (MDA-MB-231 breast): 15.6 µM

COc1ccc([N+](=O)[O-])c2c(NCC(O)CO)ccnc12 (centres undefined)
TGI (HCC-2998 colon): > 100 µM
TGI (CCRF-CEM leukemia): > 100 µM
TGI (SK-MEL-28 melanoma): > 100 µM
TGI (U251 CNS): > 100 µM
TGI (OVCAR-3 ovarian): 70 µM
TGI (OVCAR-4 ovarian): 45.7 µM
TGI (SN12C renal): > 100 µM
TGI (UACC-257 melanoma): 95.9 µM
TGI (HT29 colon): > 100 µM
TGI (MDA-MB-231 breast): > 100 µM

COC(=O)c1ccc2c(c1)c1c(C)c3cnccc3c(C)c1n2C
GI50 (HCC-2998 colon): 0.137 µM
TGI (HCC-2998 colon): 3.85 µM
GI50 (CCRF-CEM leukemia): 0.103 µM
TGI (CCRF-CEM leukemia): 13.8 µM
GI50 (SK-MEL-28 melanoma): 0.0951 µM
TGI (SK-MEL-28 melanoma): 0.444 µM
GI50 (U251 CNS): 0.0499 µM
TGI (U251 CNS): 1.48 µM
GI50 (OVCAR-3 ovarian): 0.0652 µM
TGI (OVCAR-3 ovarian): 1.15 µM
GI50 (OVCAR-4 ovarian): 0.0839 µM
TGI (OVCAR-4 ovarian): 0.531 µM
GI50 (SN12C renal): 0.044 µM
TGI (SN12C renal): 1.3 µM
GI50 (UACC-257 melanoma): 0.101 µM
TGI (UACC-257 melanoma): 0.511 µM
GI50 (HT29 colon): 0.0418 µM
TGI (HT29 colon): 1.4 µM
GI50 (MDA-MB-231 breast): 0.125 µM
TGI (MDA-MB-231 breast): 0.884 µM

CCN(CC)CC(C)Nc1ccc(C)c2sc3ccccc3c(=O)c12 (centres undefined)
GI50 (HCC-2998 colon): 3.19 µM
TGI (HCC-2998 colon): 15 µM
GI50 (CCRF-CEM leukemia): 4.33 µM
TGI (CCRF-CEM leukemia): 18 µM
GI50 (SK-MEL-28 melanoma): 1.73 µM
TGI (SK-MEL-28 melanoma): 3.41 µM
GI50 (U251 CNS): 3.43 µM
TGI (U251 CNS): 16.3 µM
GI50 (OVCAR-3 ovarian): 6.33 µM
TGI (OVCAR-3 ovarian): 19.2 µM
GI50 (OVCAR-4 ovarian): 7.61 µM
TGI (OVCAR-4 ovarian): 20.5 µM
GI50 (SN12C renal): 6.77 µM
TGI (SN12C renal): 21 µM
GI50 (UACC-257 melanoma): 2.07 µM
TGI (UACC-257 melanoma): 4.82 µM
GI50 (HT29 colon): 3.29 µM
TGI (HT29 colon): 10.8 µM
GI50 (MDA-MB-231 breast): 2.42 µM
TGI (MDA-MB-231 breast): 8.99 µM

O=Nc1c2cccnc2n2nnc3ccc(Cl)cc3c12
GI50 (HCC-2998 colon): 1.72 µM
TGI (HCC-2998 colon): 4.95 µM
GI50 (CCRF-CEM leukemia): 0.0452 µM
TGI (CCRF-CEM leukemia): 2.76 µM
GI50 (SK-MEL-28 melanoma): 2.39 µM
TGI (SK-MEL-28 melanoma): 5.36 µM
GI50 (U251 CNS): 2.57 µM
TGI (U251 CNS): 13.2 µM
GI50 (OVCAR-3 ovarian): 0.447 µM
TGI (OVCAR-3 ovarian): 1.45 µM
GI50 (OVCAR-4 ovarian): 0.98 µM
TGI (OVCAR-4 ovarian): 3.86 µM
GI50 (SN12C renal): 2.06 µM
TGI (SN12C renal): 11.7 µM
GI50 (UACC-257 melanoma): 5.87 µM
TGI (UACC-257 melanoma): 23.3 µM
GI50 (HT29 colon): 1.27 µM
TGI (HT29 colon): 14.5 µM
GI50 (MDA-MB-231 breast): 1.41 µM
TGI (MDA-MB-231 breast): 7.76 µM

CCOC(=O)/C=C/c1ccc(C(=O)OCC)[nH]1
GI50 (HCC-2998 colon): 12.3 µM
TGI (HCC-2998 colon): 77.3 µM
GI50 (CCRF-CEM leukemia): 6.04 µM
TGI (CCRF-CEM leukemia): > 100 µM
GI50 (SK-MEL-28 melanoma): 33.7 µM
TGI (SK-MEL-28 melanoma): > 100 µM
GI50 (U251 CNS): 3.92 µM
TGI (U251 CNS): > 100 µM
GI50 (OVCAR-3 ovarian): 2.38 µM
TGI (OVCAR-3 ovarian): 7.64 µM
GI50 (OVCAR-4 ovarian): 20.3 µM
TGI (OVCAR-4 ovarian): > 100 µM
GI50 (SN12C renal): 5.11 µM
TGI (SN12C renal): > 100 µM
GI50 (UACC-257 melanoma): 11.3 µM
TGI (UACC-257 melanoma): > 100 µM
GI50 (HT29 colon): 2.82 µM
TGI (HT29 colon): 14.2 µM
GI50 (MDA-MB-231 breast): 13.7 µM
TGI (MDA-MB-231 breast): > 100 µM

c1cc(-c2sc(-c3ccncc3)c(-c3ccncc3)c2-c2ccncc2)ccn1
TGI (HCC-2998 colon): 19.6 µM
TGI (SK-MEL-28 melanoma): 46.1 µM
TGI (U251 CNS): 27.8 µM
TGI (OVCAR-3 ovarian): 44.4 µM
TGI (OVCAR-4 ovarian): > 100 µM
TGI (SN12C renal): 46.5 µM
TGI (UACC-257 melanoma): 31.8 µM
TGI (HT29 colon): 27.7 µM
TGI (MDA-MB-231 breast): 31.2 µM

CCCCS(=N)(=O)CC[C@H](N)C(=O)O (some centres undefined)
GI50 (HCC-2998 colon): > 10000 µM
TGI (HCC-2998 colon): > 10000 µM
GI50 (CCRF-CEM leukemia): 302 µM
TGI (CCRF-CEM leukemia): 2790 µM and 2140 µM
GI50 (SK-MEL-28 melanoma): > 10000 µM
TGI (SK-MEL-28 melanoma): > 10000 µM
GI50 (U251 CNS): > 10000 µM
TGI (U251 CNS): > 10000 µM
GI50 (OVCAR-3 ovarian): > 10000 µM
TGI (OVCAR-3 ovarian): > 10000 µM
GI50 (OVCAR-4 ovarian): 13.4 µM
GI50 (SN12C renal): > 10000 µM
TGI (SN12C renal): > 10000 µM
GI50 (UACC-257 melanoma): > 10000 µM
TGI (UACC-257 melanoma): > 10000 µM
GI50 (HT29 colon): > 10000 µM
TGI (HT29 colon): > 10000 µM
GI50 (MDA-MB-231 breast): > 10000 µM
TGI (MDA-MB-231 breast): > 10000 µM

CCOC(=O)/C(C1=CC(=O)C(=O)c2ccccc21)=C(/C)NCc1ccccc1
GI50 (HCC-2998 colon): 2.85 µM
TGI (HCC-2998 colon): 8.2 µM
GI50 (CCRF-CEM leukemia): 0.0144 µM
TGI (CCRF-CEM leukemia): 0.0649 µM
GI50 (SK-MEL-28 melanoma): 3.02 µM
TGI (SK-MEL-28 melanoma): 7.32 µM
GI50 (U251 CNS): 0.606 µM
GI50 (OVCAR-3 ovarian): 0.218 µM
TGI (OVCAR-3 ovarian): 0.935 µM
GI50 (OVCAR-4 ovarian): 3.12 µM
TGI (OVCAR-4 ovarian): 56.7 µM
GI50 (SN12C renal): 2.12 µM
TGI (SN12C renal): 5.09 µM
GI50 (UACC-257 melanoma): 2.56 µM
TGI (UACC-257 melanoma): 10.9 µM
GI50 (HT29 colon): 4.36 µM
TGI (HT29 colon): > 100 µM
GI50 (MDA-MB-231 breast): 1.37 µM
TGI (MDA-MB-231 breast): 3.28 µM

CN(C)CCNC(=O)c1cccc(CO)c1[N+](=O)[O-]
TGI (HCC-2998 colon): > 100 µM
TGI (CCRF-CEM leukemia): > 100 µM
TGI (SK-MEL-28 melanoma): > 100 µM
TGI (U251 CNS): > 100 µM
TGI (OVCAR-3 ovarian): > 100 µM
TGI (SN12C renal): > 100 µM
TGI (UACC-257 melanoma): > 100 µM
TGI (HT29 colon): > 100 µM
TGI (MDA-MB-231 breast): > 100 µM

CN(C)CCNc1cccc2sc3ccc(O)cc3c(=O)c12
GI50 (HCC-2998 colon): 1.56 µM
TGI (HCC-2998 colon): 3.1 µM
GI50 (CCRF-CEM leukemia): 0.777 µM
TGI (CCRF-CEM leukemia): 6.61 µM
GI50 (SK-MEL-28 melanoma): 1.74 µM
TGI (SK-MEL-28 melanoma): 3.88 µM
GI50 (OVCAR-3 ovarian): 3.28 µM
TGI (OVCAR-3 ovarian): 11.5 µM
GI50 (OVCAR-4 ovarian): 2.75 µM
TGI (OVCAR-4 ovarian): 12.3 µM
GI50 (SN12C renal): 2.54 µM
TGI (SN12C renal): 13.6 µM
GI50 (UACC-257 melanoma): 1.7 µM
TGI (UACC-257 melanoma): 3.21 µM
GI50 (HT29 colon): 1.63 µM
TGI (HT29 colon): 4.08 µM
GI50 (MDA-MB-231 breast): 1.48 µM
TGI (MDA-MB-231 breast): 3.72 µM

ClCCn1cnc2c(SCc3ccccc3)ncnc21
GI50 (CCRF-CEM leukemia): 0.889 µM
TGI (CCRF-CEM leukemia): > 100 µM
GI50 (SK-MEL-28 melanoma): 10.9 µM
TGI (SK-MEL-28 melanoma): > 100 µM
GI50 (U251 CNS): 0.623 µM
TGI (U251 CNS): > 100 µM
GI50 (OVCAR-3 ovarian): 7.45 µM
TGI (OVCAR-3 ovarian): > 100 µM
GI50 (OVCAR-4 ovarian): 19.8 µM
TGI (OVCAR-4 ovarian): > 100 µM
GI50 (SN12C renal): 8.54 µM
TGI (SN12C renal): > 100 µM
GI50 (UACC-257 melanoma): 14.1 µM
TGI (UACC-257 melanoma): > 100 µM
GI50 (HT29 colon): 0.872 µM
TGI (HT29 colon): > 100 µM
GI50 (MDA-MB-231 breast): 30 µM
TGI (MDA-MB-231 breast): > 100 µM

CCN(CC)C(=S)SSC1CCCCC1
GI50 (HCC-2998 colon): 19.7 µM
TGI (HCC-2998 colon): 41.1 µM
GI50 (CCRF-CEM leukemia): 5.72 µM
TGI (CCRF-CEM leukemia): 58.6 µM
GI50 (SK-MEL-28 melanoma): 19.9 µM
TGI (SK-MEL-28 melanoma): 42.2 µM
GI50 (U251 CNS): 14.2 µM
TGI (U251 CNS): 29.1 µM
GI50 (OVCAR-4 ovarian): 15 µM
TGI (OVCAR-4 ovarian): 28.4 µM
GI50 (SN12C renal): 15.8 µM
TGI (SN12C renal): 31.2 µM
GI50 (UACC-257 melanoma): 22.5 µM
TGI (UACC-257 melanoma): 65 µM
GI50 (HT29 colon): 15.3 µM
TGI (HT29 colon): 34.8 µM
GI50 (MDA-MB-231 breast): 17.3 µM
TGI (MDA-MB-231 breast): 37.1 µM
